In US9850283B2, “Macrocyclic inhibitors of the PD-1/PD-L1 and CD80(B7-1)/PD-L1 protein/protein interactions” (BRISTOL-MYERS SQUIBB COMPANY, priority 2013, dated 2017):
Where two headings read alike, the source gives them in different places. Starred links: 1 amine or outer side, 2 acyl side, 3 side chain; linkers in the order of their positions; H or OH if unused. Positions of bridges follow the written chain, without caps; N, C: chain ends. Non-standard residues stand in square brackets, D forms with d. Residues, ends and D or L forms follow the SMILES beside them. ξ: configuration not given here. *: point of attachment. X1 = C[C@@H]1C[C@H](C(=O)[*:2])N([*:1])C1; ξPhe(βξ-Me) = CC(c1ccccc1)C(N)C(=O)O; Bta = N[C@@H](Cc1csc2ccccc12)C(=O)O; Cyclobutanecarbonyl = O=C(C1CCC1)*; Hyp = O=C(O)[C@@H]1C[C@@H](O)CN1; NMeF = CN[C@@H](Cc1ccccc1)C(=O)O; NMeNle = CCCC[C@H](NC)C(=O)O; NMeS = CN[C@@H](CO)C(=O)O; Pip = O=C(O)[C@@H]1CCCCN1; NMeA = CN[C@@H](C)C(=O)O; Dap = NC[C@H](N)C(=O)O; ξC = NC(CS)C(=O)O; Sar = CNCC(=O)O

Tests used:
[1] = biological target: T1, Human PD-L1/PD-1 (Homo sapiens, UniProt Q9NZQ7); experiment: HTRF PD-1-Ig/PD-L1-His binding assay (human PD-L1)
T1 construct: made in house; host or cells: HEK293T
Procedure, shortened: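 Steps: truncated PD-1-Ig and PD-L1-His fusions are incubated in dPBS containing 0.1% (w/v) BSA and 0.05% (v/v) Tween-20. Detection antibodies are then added (Eu cryptate anti-Ig at 1 nM final, APC anti-His at 20 nM final), and time-resolved FRET is measured.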

[2] = biological target: T2, LK35.2-hPD-L1 cells / PE-labeled PD-1-Ig (Homo sapiens, UniProt Q9NZQ7); experiment: LK35.2-hPD-L1 cell binding high-content screening assay; format: cell-based; conditions: cluster symbol, read-out: CBA IC50 cluster
T2 construct: expressed in transfected cells; host or cells: LK35.2 mouse B cell line
Procedure, shortened: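 Mouse LK35.2 B cells stably over-expressing human PD-L1, cultured overnight, treated with compound plus PE-labeled human PD-1-Ig (1 nM final) in RPMI/10% FCS for 1 h at 37 °C. After washing, bound fluorescence quantified by high-content imaging.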

[3] = cluster symbol, read-out: HTRF IC50 cluster
[4] = cell binding assay, cell line not given
[5] = cell line of CBA not given (LK35.2-hPD-L1 or 293T-hPD-L1)

T1 sequence (Q9NZQ7 with tags, fused parts or gaps): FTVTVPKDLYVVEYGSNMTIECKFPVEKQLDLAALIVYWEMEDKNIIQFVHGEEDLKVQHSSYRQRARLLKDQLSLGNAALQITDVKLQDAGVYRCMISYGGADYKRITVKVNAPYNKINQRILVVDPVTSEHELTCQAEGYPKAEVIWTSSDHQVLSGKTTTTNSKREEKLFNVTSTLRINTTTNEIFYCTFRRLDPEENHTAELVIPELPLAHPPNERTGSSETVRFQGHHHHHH
T2 sequence (Q9NZQ7 19-290): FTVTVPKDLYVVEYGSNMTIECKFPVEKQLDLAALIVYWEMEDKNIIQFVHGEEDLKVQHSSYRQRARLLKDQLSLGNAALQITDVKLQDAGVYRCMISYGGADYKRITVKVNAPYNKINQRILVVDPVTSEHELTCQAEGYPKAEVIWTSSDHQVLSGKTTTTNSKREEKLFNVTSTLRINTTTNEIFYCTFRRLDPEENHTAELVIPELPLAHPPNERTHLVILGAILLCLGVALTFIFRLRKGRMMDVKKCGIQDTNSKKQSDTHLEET

Structure (SMILES) | IC50 [1, 3] | IC50 [2, 4] | IC50 [2, 5] | IC50 ([1]; value given instead of cluster, read-out: HTRF IC50 value)
CCCC[C@H]1C(=O)N(C)CC(=O)N[C@@H](CC(=O)O)C(=O)N[C@@H](C(C)C)C(=O)N(C)[C@@H](Cc2ccccc2)C(=O)N[C@@H](Cc2ccc(O)cc2)C(=O)N(C)[C@@H](Cc2ccc(O)cc2)C(=O)N[C@@H](Cc2c[nH]c3ccccc23)C(=O)N[C@@H](Cc2ccc(O)cc2)C(=O)N[C@@H](CC(C)C)C(=O)N[C@H](C(=O)NCC(N)=O)CSCC(=O)N[C@@H](Cc2ccccc2)C(=O)N(C)[C@@H](Cc2ccccc2)C(=O)N1C [Example 3511] (HELM PEPTIDE1{[O=C(C[*:3])[*:2]].F.[meF].[CCCC[C@@H](C(=O)[*:2])N(C)[*:1]].[Sar].D.V.[meF].Y.[meY].W.Y.L.C.G.[am]}$PEPTIDE1,PEPTIDE1,1:R3-14:R3$$$V2.0) | > 30.5 nM | 4.78 to 72.9 nM | – | –
CCCC[C@H]1C(=O)N[C@@H](CCCNC(=N)N)C(=O)N[C@H](C(=O)NCC(N)=O)CSCC(=O)N[C@@H](Cc2ccccc2)C(=O)N(C)[C@@H](C)C(=O)N[C@@H](CC(N)=O)C(=O)N2CCC[C@H]2C(=O)N[C@@H](Cc2cnc[nH]2)C(=O)N[C@@H](CC(C)C)C(=O)N(C)CC(=O)N[C@@H](Cc2c[nH]c3ccccc23)C(=O)N[C@@H](CO)C(=O)N[C@@H](Cc2c[nH]c3ccccc23)C(=O)N[C@@H](CNC(=O)C2CCC2)C(=O)N1C [Example 1011] ({CH2CO}-F[NMeA]NPHL[Sar]WSW[Dap](Cyclobutanecarbonyl)[NMeNle]RCG-NH2; thioether N-14) | > 30.5 nM | – | > 74.3 nM | –
CCCC[C@H]1C(=O)N(C)CC(=O)N[C@@H](CC(=O)O)C(=O)N[C@@H](C(C)C)C(=O)N(C)[C@@H](Cc2ccccc2)C(=O)N[C@@H](Cc2ccc(O)cc2)C(=O)N(C)CC(=O)N[C@@H](Cc2c[nH]c3ccccc23)C(=O)N[C@@H](Cc2ccc(O)cc2)C(=O)N[C@@H](CC(C)C)C(=O)N[C@H](C(=O)NCC(N)=O)CSCC(=O)NC(C(C)c2ccccc2)C(=O)N(C)[C@@H](Cc2ccccc2)C(=O)N1C (stereo partly drawn) [Example 3516] ({CH2CO}-[ξPhe(βξ-Me)][NMeF][NMeNle][Sar]DV[NMeF]Y[Sar]WYLCG-NH2; thioether N-13) | > 30.5 nM | > 74.3 nM | – | –
CCCC[C@H]1C(=O)N2CCC[C@@H]2C(=O)N[C@@H](CCCNC(=N)N)C(=O)N[C@H](C(=O)NCC(N)=O)CSCC(=O)N[C@@H](Cc2ccccc2)C(=O)N(C)[C@@H](C)C(=O)N[C@@H](CC(N)=O)C(=O)N2CCC[C@H]2C(=O)N[C@@H](Cc2cnc[nH]2)C(=O)N[C@@H](CC(C)C)C(=O)N(C)CC(=O)N[C@@H](Cc2c[nH]c3ccccc23)C(=O)N[C@@H](CO)C(=O)N[C@@H](Cc2c[nH]c3ccccc23)C(=O)N1C [Example 5009] (HELM PEPTIDE1{[O=C(C[*:3])[*:2]].F.[meA].N.P.H.L.[Sar].W.S.W.[CCCC[C@@H](C(=O)[*:2])N(C)[*:1]].[dP].R.C.G.[am]}$PEPTIDE1,PEPTIDE1,1:R3-15:R3$$$V2.0) | – | > 74.3 nM | – | 30.5 nM

Further lines, results first:

IC50 [1, 3] | IC50 [2, 4] | IC50 [2, 5] | IC50 ([1]; value given instead of cluster, read-out: HTRF IC50 value) | Structure (SMILES)
6.76 to 30.3 nM | 0.158 to 4.71 nM | – | – | CCCC[C@H]1C(=O)N(C)[C@@H](CO)C(=O)N[C@@H](CCCNC(=N)N)C(=O)NC(C(=O)NCC(N)=O)CSCC(=O)N[C@@H](Cc2ccc(O)cc2)C(=O)N(C)[C@@H](C)C(=O)N[C@@H](CC(N)=O)C(=O)N2CCC[C@H]2C(=O)N[C@@H](Cc2cnc[nH]2)C(=O)N[C@@H](CC(C)C)C(=O)N2C[C@H](O)C[C@H]2C(=O)N[C@@H](Cc2c[nH]c3ccccc23)C(=O)N[C@@H](CO)C(=O)N[C@@H](Cc2csc3ccccc23)C(=O)N1C (some centres unmarked) [Example 9033] ({CH2CO}-Y[NMeA]NPHL[Hyp]WS[Bta][NMeNle][NMeS]R[ξC]G-NH2; thioether N-14)
6.76 to 30.3 nM | – | 0.158 to 4.71 nM | – | CCCC[C@H]1C(=O)N(C)[C@@H](CCCC)C(=O)N[C@@H](CCCNC(=N)N)C(=O)N[C@H](C(=O)NCC(N)=O)CSCC(=O)N[C@@H](Cc2ccc(O)cc2)C(=O)N2CCCC[C@H]2C(=O)N[C@@H](CC(=O)O)C(=O)N2CCC[C@H]2C(=O)N[C@@H](CN)C(=O)N[C@@H](CC(C)C)C(=O)N2C[C@H](O)C[C@H]2C(=O)N[C@@H](Cc2c[nH]c3ccccc23)C(=O)N[C@@H](CO)C(=O)N[C@@H](Cc2c[nH]c3ccccc23)C(=O)N1C [Example 1233] ({CH2CO}-Y[Pip]DP[Dap]L[Hyp]WSW[NMeNle][NMeNle]RCG-NH2; thioether N-14)
0.385 to 6.74 nM | 0.158 to 4.71 nM | – | – | CCCC[C@H]1C(=O)N(C)CC(=O)N[C@@H](CC(=O)O)C(=O)N[C@@H](C(C)C)C(=O)N(C)[C@@H](Cc2ccccc2)C(=O)N[C@@H](Cc2ccc(O)cc2)C(=O)N2C[C@H](C)C[C@@H]2C(=O)N[C@@H](Cc2c[nH]c3ccccc23)C(=O)N[C@@H](Cc2ccc(O)cc2)C(=O)N[C@@H](CC(C)C)C(=O)N[C@H](C(=O)NCC(N)=O)CSCC(=O)N[C@@H](Cc2ccccc2)C(=O)N(C)[C@@H](Cc2ccccc2)C(=O)N1C [Example 3578] ({CH2CO}-F[NMeF][NMeNle][Sar]DV[NMeF]Y[X1]WYLCG-NH2; thioether N-13)
